Measurements: publication PMC9770967, “Native holdup (nHU) to measure binding affinities from cell extracts” (Science Advances, 2022)
*1 amine or outer side, *2 acyl side, *3 side chain or, on linkers, in order; H or OH if unused. Where a SMILES comes first, the peptide text is derived from it. The star is where a group is joined. X1 = O=C(CCCC[C@@H]1SC[C@@H]2NC(=O)N[C@@H]21)NCCCOCCOCCOCCCN*; Suc = O=C(CCC(=O)[*:2])[*:1]

Experiments:
SCRIB PDZ1 = conditions: fragmentomic, isolated PDZ domain; cited from earlier work
Description: Supplement sciadv.ade3828_table_s1.zip/sciadv.ade3828_table_s1.xlsx, sheet "nHU-WB_SP" | column: Domain-motif fragmentomic affinities (ProfAff)

SCRIB PDZ3 = conditions: fragmentomic, isolated PDZ domain; cited from earlier work
Description: (§1) Supplement sciadv.ade3828_table_s1.zip/sciadv.ade3828_table_s1.xlsx, sheet "nHU-WB_SP"

[1] = target: isolated PDZ domain of SNX27; conditions: 10-mer PBM peptide vs isolated PDZ domain, holdup; cited from earlier work
SCRIB PDZ2 = conditions: fragmentomic, isolated PDZ domain; cited from earlier work
Description: as §1

SNX27_PDZ [2] = experiment: nHU-MS, SNX27_PDZ bait, total SH-SY5Y extracts; format: binding, human
Procedure: The empty His6-AviTag-MBP-TEV vector was used to produce biotinylated MBP for control experiments. Proteins were coexpressed with BirA biotin ligase (PET21a-BirA, Addgene, no. 20857) in Escherichia coli BL21(DE3) cells. At isopropyl-β-D-thiogalactopyranoside (IPTG) induction (1 mM IPTG at 18°C overnight), 50 μM biotin was added to the media. Harvested cells were lysed in a buffer containing 50 mM tris (pH 7.5), 150 to 300 mM NaCl, 50 μM biotin, 2 mM β-mercaptoethanol, cOmplete EDTA-free protease inhibitor cocktail (Roche, Basel, Switzerland), 1% Triton X-100, and trace amount of deoxyribonuclease, ribonuclease, and lysozyme. Lysates were frozen at −20°C before further purification steps. Lysates were sonicated and centrifuged for clarification. Expressed proteins were captured on in-house prepacked Ni-IDA (Protino Ni-IDA Resin, Macherey-Nagel, Duren, Germany) columns and were washed with at least 10 column volumes of cold wash buffer [50 mM tris (pH 7.5), 150 mM NaCl, and 2 mM β-mercaptoethanol] before elution with 250 mM imidazole. The Ni elution was collected directly on a preequilibrated amylose column (amylose high flow resin, New England Biolabs, Ipswich, MA). Amylose column was washed with 5 column volumes of cold wash buffer before fractionated elution in a buffer containing 25 mM Hepes (pH 7.5), 150 mM NaCl, 1 mM TCEP, 10% glycerol, 5 mM maltose, and cOmplete EDTA-free protease inhibitor cocktail. The concentration of proteins was determined by their ultraviolet absorption at 280 nm before aliquots were snap-frozen in liquid nitrogen and stored at −80°C.
(§2) For saturating streptavidin resin with biotinylated peptides or biotin, 50 μl of streptavidin resin was mixed with biotin or peptide at 40 to 60 μM concentration in 6 to 6.5 resin volume for 60 min. To saturate streptavidin resin with biotinylated proteins, 50 μl of streptavidin resin (Streptavidin Sepharose High Performance, Cytiva) was mixed with biotinylated MBP or MBP-PDZ at 40 to 50 μM concentration in 20× resin volume for 60 min. After saturation, resins were washed a single time [10 resin volume, holdup buffer: 50 mM tris (pH 7.5), 300 mM NaCl, and 1 mM TCEP, 0.22-μm filtered] and were depleted with biotin (10 resin volume, 10 min, holdup buffer supplemented with 100 μM biotin). Last, resins were washed two times (10 resin volume, holdup buffer).
(§3) For single-point nHU experiments carried out at ~10 μM bait concentration, 50 μl of saturated streptavidin resin was mixed with 200 μl of cell lysate (2 mg/ml). Titration experiments were carried out by mixing control and bait-saturated resin and keeping the total resin volume constant; e.g., ~5 μM bait concentration can be achieved by mixing 25 μl of bait-saturated streptavidin resin with 25 μl of control resin and 200 μl of cell lysate (2 mg/ml). Control and bait-saturated resins were prepared in larger amounts, and a serial dilution was prepared with these presaturated resins to achieve different resin ratios.
Unless specified elswhere, the nHU mixture was incubated at 4°C for 2 hours. After the incubation ended, the resin was separated from the supernatant by a brief centrifugation (15 s, 2000 g). Then, half of the supernatant was removed by pipetting without any delay to avoid any resin contamination; e.g., 100 μl of supernatant is collected if 200 μl of cell lysate was used as analyte. Alternatively, the supernatant can be centrifuged an additional time to clarify it further, removing any possible resin contamination. In principle, the separation of the supernatant should be as fast as possible since any delay can perturb the equilibrium. […] Alternatively, the resin can be separated from the supernatant using filter plates (e.g., various products of Millipore, Burlington, MA) or spin columns (e.g., Pierce spin cups—cellulose acetate filter from Thermo Fisher Scientific, Waltham, MA) to achieve faster separation. […]

SNX27_PDZ [3] = experiment: nHU-MS, SNX27_PDZ bait, total Jurkat extracts, series 2 (Exploris MS); format: binding, human
Description: (§4) To further establish the repeatability and robustness of the nHU-MS assay, we repeated the experiments using a different mass spectrometer and six different PDZ domain baits taken from SCRIB (PDZ_1 and PDZ_2), discs large MAGUK scaffold protein 1 (DLG1, PDZ_1, and PDZ_2), Tax1 binding protein 3 (TAX1BP3), and SNX27 (fig. S3B and table S1). […] Of the studied baits, the PDZ domain of SNX27 turned out to be the most promiscuous with 103 statistically significant interaction partners (while 180 SNX27 binding partners were identified in total on the basis of the three independent nHU-MS experiments).
as §2, §3
(§5) Unless specified elswhere, the nHU mixture was incubated at 4°C for 2 hours. After the incubation ended, the resin was separated from the supernatant by a brief centrifugation (15 s, 2000 g). Then, half of the supernatant was removed by pipetting without any delay to avoid any resin contamination; e.g., 100 μl of supernatant is collected if 200 μl of cell lysate was used as analyte. Alternatively, the supernatant can be centrifuged an additional time to clarify it further, removing any possible resin contamination. In principle, the separation of the supernatant should be as fast as possible since any delay can perturb the equilibrium. […] Alternatively, the resin can be separated from the supernatant using filter plates (e.g., various products of Millipore, Burlington, MA) or spin columns (e.g., Pierce spin cups—cellulose acetate filter from Thermo Fisher Scientific, Waltham, MA) to achieve faster separation.
(§6) The nHU samples were precipitated with trichloroacetic acid (TCA) 20% overnight at 4°C and centrifuged at 14,000 rpm for 10 min at 4°C. The protein pellets were washed twice with 1 ml of cold acetone and air-dried. The protein extracts were solubilized in 8 M urea, reduced with 5 mM TCEP for 30 min, and alkylated with 10 mM iodoacetamide for 30 min in the dark. Double digestion was performed at 37°C with 500 ng of endoproteinase Lys-C (Wako, Richmond, USA) for 4 hours, followed by fourfold dilution and an overnight digestion with 500 ng of trypsin (Promega, Charbonnieres les Bains, France). Peptide mixtures were then desalted on a C18 spin-column and dried on a speed vacuum.
(§7) Samples were analyzed using an Ultimate 3000 nano-RSLC coupled in line via a nano-electrospray ionization source, with an LTQ-Orbitrap ELITE mass spectrometer (Thermo Fisher Scientific, San Jose, CA) or with the Orbitrap Exploris 480 mass spectrometer (Thermo Fisher Scientific, Bremen, Germany) equipped with a high field asymmetric ion mobility spectrometry (FAIMS) module. […]

DLG1_PDZ_2 = experiment: nHU-MS, DLG1_PDZ_2 bait, total Jurkat extracts (Exploris MS); format: binding, human; conditions: Jurkat extract; for Difference log2 / Ratio DLG1_2/MBP: DLG1_PDZ_2 bait vs MBP; for BI: DLG1_PDZ_2 bait
Description: as §4, §2, §3, §5, §6, §7

DLG1_PDZ_1 = experiment: nHU-MS, DLG1_PDZ_1 bait, total Jurkat extracts (Exploris MS); format: binding, human; conditions: for Ratio DLG1_1/MBP: DLG1_PDZ_1, total Jurkat extract; for BI: DLG1_PDZ_1 bait vs MBP; for BI / pKd / Difference log2: total Jurkat extract; for pKd: DLG1_PDZ_1 bait, not filtered for significance (pKdsign N/D); for Difference log2: DLG1_PDZ_1 vs MBP
Description: as §4, §2, §3, §5, §6, §7

TX1BP3_PDZ = experiment: nHU-MS, TX1BP3_PDZ (TAX1BP3) bait, total Jurkat extracts (Exploris MS); format: binding, human; conditions: for BI / Difference log2 / Ratio TX1BP3/MBP: nHU-MS, total Jurkat extract; for BI: TX1BP3_PDZ bait vs MBP; for Difference log2: TX1BP3_PDZ vs MBP; for Ratio TX1BP3/MBP: TX1BP3_PDZ
Description: as §4, §2, §3, §5, §6, §7

SCRIB_PDZ_1 = experiment: nHU-MS, SCRIB_PDZ_1 bait, total Jurkat extracts (Exploris MS); format: binding, human; conditions: for Ratio SCRIB_1/MBP: SCRIB_PDZ_1, total Jurkat extract; for BI: SCRIB_PDZ_1 bait vs MBP; for Difference log2: SCRIB_PDZ_1 vs MBP
Description: as §4, §2, §3, §5, §6, §7

SCRIB_PDZ_2 = experiment: nHU-MS, SCRIB_PDZ_2 bait, total Jurkat extracts (Exploris MS); format: binding, human; conditions: nHU-MS; for Ratio SCRIB_2/MBP: SCRIB_PDZ_2, total Jurkat extract; for BI: SCRIB_PDZ_2 bait vs MBP; for BI / Difference log2: total Jurkat extract; for Difference log2: SCRIB_PDZ_2 vs MBP
Description: as §4, §2, §3, §5, §6, §7

Row | pKd (DLG1_PDZ_1) | Molecule | BI (SNX27_PDZ [3]; Jurkat, series 2, n = 3) | Difference log2 (SNX27_PDZ [3]; Jurkat, series 2, n = 3) | Ratio SNX27/MBP (SNX27_PDZ [3]; Jurkat, series 2, n = 3) | Difference log2 (DLG1_PDZ_2) | Ratio DLG1_2/MBP (DLG1_PDZ_2) | BI (DLG1_PDZ_2) | Ratio DLG1_1/MBP (DLG1_PDZ_1) | BI (DLG1_PDZ_1) | Difference log2 (DLG1_PDZ_1) | BI (TX1BP3_PDZ) | Difference log2 (TX1BP3_PDZ) | Ratio TX1BP3/MBP (TX1BP3_PDZ) | Ratio SCRIB_1/MBP (SCRIB_PDZ_1; nHU-MS) | BI (SCRIB_PDZ_1; nHU-MS, total Jurkat extract) | Difference log2 (SCRIB_PDZ_1; nHU-MS, total Jurkat extract) | Ratio SCRIB_2/MBP (SCRIB_PDZ_2) | BI (SCRIB_PDZ_2) | Difference log2 (SCRIB_PDZ_2) | further results
1 |  | CC[C@H](C)[C@H](NC(=O)[C@H](CCC(N)=O)NC(=O)[C@H](CO)NC(=O)[C@@H](NC(=O)[C@H](CCC(N)=O)NC(=O)[C@@H](NC(=O)[C@H](CC(N)=O)NC(=O)[C@H](CCCNC(=N)N)NC(=O)[C@@H]1CCCN1C(=O)[C@H](CC(=O)O)NC(=O)CCC(=O)NCCCOCCOCCOCCCNC(=O)CCCC[C@@H]1SC[C@@H]2NC(=O)N[C@@H]21)[C@@H](C)O)[C@@H](C)O)C(=O)O [ABRAXAS2] ({X1-Suc}-DPRNTQTSQI-OH; C-terminus assumed) |  |  |  |  |  |  |  |  |  |  |  |  |  |  |  |  |  |  | pKd_PDZ1 (SCRIB PDZ1): 4.02; pKd_PDZ3 (SCRIB PDZ3): 4.01; pKd (fragmentomic affinity) [1]: 4.04
2 |  | CC[C@H](C)[C@H](NC(=O)CCC(=O)NCCCOCCOCCOCCCNC(=O)CCCC[C@@H]1SC[C@@H]2NC(=O)N[C@@H]21)C(=O)N[C@@H](CC(=O)O)C(=O)N[C@@H](CC(N)=O)C(=O)N[C@@H](CC(=O)O)C(=O)N[C@H](C(=O)N[C@@H](CCC(=O)O)C(=O)N[C@@H](CO)C(=O)N[C@H](C(=O)N[C@@H](C)C(=O)N[C@@H](CC(C)C)C(=O)O)[C@@H](C)O)[C@@H](C)O [ARHGAP17] ({X1-Suc}-IDNDTESTAL-OH; C-terminus assumed) |  |  |  |  |  |  |  |  |  |  |  |  |  |  |  |  |  |  | pKd_PDZ1 (SCRIB PDZ1): 4.91; pKd_PDZ3 (SCRIB PDZ3): 4.57; pKd_PDZ2 (SCRIB PDZ2): 3.61; pKd (fragmentomic affinity) [1]: 4.97
3 |  | KARS1: Lysine--tRNA ligase |  |  |  |  |  |  |  |  |  |  |  |  |  |  |  |  |  |  | pKapp_HU_not_filtered (SNX27_PDZ [2]; apparent, Eq. 2, not filtered for significance): 4.711; pKapp_significant_binders_HU (SNX27_PDZ [2]; apparent, Eq. 2, significant binders (1 σ, P < 0.05)): 4.711; BI_HU (SNX27_PDZ [2]; n = 6): 0.3389
4 | 3.996 | PIGBOS1: Protein PIGBOS1 (MFRRLTFAQLLFATVLGIAGGVYIFQPVFEQYAKDQKELKEKMQLVQESEEKKS; UniProt A0A0B4J2F0 1-54, looked up) | -0.08774 | 0.1213 | 1.088 | 0.04834 | 1.034 | -0.03407 | 0.91 | 0.08999 | -0.136 | -0.09136 | 0.1261 | 1.091 | 1.118 | -0.1177 | 0.1605 | 1.081 | -0.08098 | 0.1123 | 
5 | 3.493 | PPIAL4C: Peptidyl-prolyl cis-trans isomerase A-like 4C | -0.1115 | 0.1526 | 1.112 | 0.05781 | 1.041 | -0.04089 | 0.9698 | 0.03017 | -0.0442 | -0.05401 | 0.07589 | 1.054 | 0.9925 | 0.007486 | -0.01084 | 1.136 | -0.1361 | 0.1841 | pKd (SCRIB_PDZ_1; nHU-MS, SCRIB_PDZ_1 bait, total Jurkat extract, not filtered for significance (pKdsign N/D)): 2.878
6 | 4.3897 | PPIAL4H: Peptidyl-prolyl cis-trans isomerase A-like 4H | 0.2686 | -0.4513 | 0.7314 | 0.01399 | 1.01 | -0.009745 | 0.8033 | 0.1967 | -0.3159 | -0.05277 | 0.07419 | 1.053 | 1.007 | -0.006606 | 0.009499 | 1.14 | -0.1396 | 0.1885 | pKd (SNX27_PDZ [3]; apparent, Jurkat, series 2, not filtered for significance, n = 3): 4.566
7 |  | WDR48 |  |  |  |  |  |  |  |  |  |  |  |  |  |  |  |  |  |  | pKapp (nHU-MS) (SNX27_PDZ [3]; SNX27_PDZ&Jurkat (Exploris)): 4.78; pKapp (nHU-MS) (TX1BP3_PDZ; TX1BP3_PDZ&Jurkat (Exploris)): 4.78; pKapp (nHU-MS) (SCRIB_PDZ_1; SCRIB_PDZ_1&Jurkat (Exploris)): 4.749
